# Results from patent US20240342167A1, “INHIBITORS OF PORCINE REPRODUCTIVE AND RESPIRATORY SYNDROME VIRUS” (University of Connecticut, priority 2023, published 2024).
# Entries after “also recorded” stand apart in the source; their conditions may differ.
# How the values were obtained:
# GFP [1] = biological target: T1, GFP; assay: Microscale thermophoresis (MST) assay: association of B7 with purified GFP (control protein); assay type: binding; conditions: Monolith NT.115, blue channel, GFP alone (control), values represent Mean, N=3
# T1 construct: made in house
# Method: Values represent Mean, N=3.
# (§1) The recombinant pET28b-GFP-SRCR2/SRCR5 constructs were transformed into Escherichia coli strain BL21 (DE3) (New England Biolabs, MA, USA). The transformed clones were cultured at 37° C. in LB broth with […] kanamycin, induced by adding 1 mM isopropyl β-D-1-thiogalactopyranoside at optical density of 0.6-0.8, and then incubated at 37° C. for 3 h. For protein purification, cells were pelleted and resuspended in xTractor Buffer containing DNAse I, lysozyme solution, and Protease Inhibitor Cocktail (Takara Bio USA, Inc., CA). The suspension was sonicated and centrifuged. The supernatant was incubated with equilibrated TALON Metal Affinity Resin (Takara Bio USA, Inc., CA, USA) and then were eluted from resin with the elution buffer (pH 7.0, 150 mM imidazole, 50 mM NaH2PO4, and 300 mM NaCl). The eluted proteins were concentrated and with buffer exchanged to phosphate-buffered saline (pH 7.4) containing 0.05% Tween-20 (PBST) using Protein Concentrator PES, 10 kD MWCO (Pierce Biotechnology, PA, USA).
# (§2) The purified GFP, GFP-fused SRCR2 or SRCR5 proteins were mixed with serially diluted compounds. The mixtures were loaded to capillaries and the affinity was measured by Monolith NT.115 (NanoTemper Technologies, Inc., CA, USA) at corresponding MST power with the blue channel. […]
# GFP-fusion CD163-SRCR2 = biological target: T2, GFP-fusion CD163-SRCR2 (Sus scrofa, UniProt Q2VL90); assay: Microscale thermophoresis (MST), GFP-SRCR2; assay type: binding, porcine
# T2 construct: The purified GFP, GFP-fused SRCR2 or SRCR5 proteins were mixed with serially diluted compounds; made in house; host or cells: Escherichia coli BL21 (DE3)
# T2 sequence (Q2VL90 158-258 limits assumed): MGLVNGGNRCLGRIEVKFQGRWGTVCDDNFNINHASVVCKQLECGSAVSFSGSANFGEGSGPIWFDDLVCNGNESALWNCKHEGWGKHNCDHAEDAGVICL
# Method: as §1
# (§3) The purified GFP, GFP-fused SRCR2 or SRCR5 proteins were mixed with serially diluted compounds. The mixtures were loaded to capillaries and the affinity was measured by Monolith NT.115 (NanoTemper Technologies, Inc., CA, USA) at corresponding MST power with the blue channel.
# [2] = biological target: T3, PPI between PRRSV GP4 and CD163-SRCR5 domain (Sus scrofa, UniProt Q2VL90); assay: BiFC assay GP4/SRCR5; assay type: cell-based, porcine CD163; PRRSV VR2332; conditions: for Average GP4 (relative fluorescence intensity, SRCR5/GP4 BiFC): 5 μM, HEK293T, 24 h after transfection, relative to NC (DMSO), n=3, 5 µM
# T3 construct: SRCR5 domain of porcine CD163 receptor was amplified from cDNA of pig cells; expressed in transfected cells; host or cells: HEK293T
# Method: (§4) HEK293T cells were cultivated in 6-well plates in FP medium and transfected with 1 μg XpBiFC-VN155 (I152L)-SRCR5 and 1 μg pBiFC-VC155-GP2/GP4 using Fugene6. After 4 h, cells were digested with 0.05% Typsin-EDTA (ThermoFisher Scientific, MA, USA)) and passaged to 48-well plates which were coated with EmbryoMax 0.1% Gelatin Solution (Sigma-Aldrich, MO, USA) and preloaded with 5 μM B7 analogues. Fluorescence images were taken at 24 h after transfection and fluorescence intensity was measured by image J.
# GFP-fusion CD163-SRCR5 = biological target: T4, GFP-fusion CD163-SRCR5 (Sus scrofa, UniProt Q2VL90); assay: Microscale thermophoresis (MST), GFP-SRCR5; assay type: binding, porcine; conditions: read-out: dissociation constant (Kd)
# T4 construct: The purified GFP, GFP-fused SRCR2 or SRCR5 proteins were mixed with serially diluted compounds; made in house; host or cells: Escherichia coli BL21 (DE3)
# Method: as §1, §3
# [3] = biological target: T5, PPI between PRRSV glycoprotein GP2a and CD163-SRCR5 (Sus scrofa, UniProt Q2VL90); assay: BiFC assay GP2a/SRCR5; assay type: cell-based, porcine CD163; PRRSV VR2332; conditions: for Average GP2a (relative fluorescence intensity, SRCR5/GP2a BiFC): 5 μM, HEK293T, 24 h after transfection, relative to NC (DMSO) = 1.00, n=3, 5 µM
# T5 construct: SRCR5 domain of porcine CD163 receptor was amplified from cDNA of pig cells; expressed in transfected cells; host or cells: HEK293T
# Method: as §4
# GFP [4] = assay: Microscale thermophoresis (MST), GFP; assay type: binding
# Method: as §1, §3
# [5] = biological target: T6, GFP-fusion CD163-SRCR5 (GFP-fused SRCR5 domain of porcine CD163, recombinant, expressed in E. coli BL21 (DE3)) (Sus scrofa, UniProt Q2VL90); assay: Microscale thermophoresis (MST) assay: direct association of compounds with purified GFP-fused CD163-SRCR5; assay type: binding; conditions: Monolith NT.115, blue channel, values represent Mean, N=3
# T6 construct: GFP and GFP-SRCR2 as controls
# Method: The amino acids within the LBP and loop 5-6 regions are underlined. […] B7 was placed in position 1 (Boxes) to show the potential disturbing of both conformations. […] B7 was placed in position 2 (Box) to show the potential disturbing of this conformation. […] Values represent Mean, N=3. […] Values represent Mean, N=3. […] Values represent Mean, N=3.
# All chemicals (dissolved in 10 mM in DMSO) were designed and provided by Atomwise, Inc. (CA, USA). Compounds were further diluted in PBS (137 mM NaCl, 2.7 mM KCl, 8 mM Na2HPO4, and 2 mM KH2PO4, pH 7.4, Gibco, MA, USA) to 200 μM as the working solution. Pulmonary alveolar macrophages (PAMs) were harvested from healthy 4-6-month Landrace/Yorkshire pigs. Briefly, pig lungs were removed from euthanized pigs during necropsy and transferred on ice to the lab. 200 mL warm PBS with 200 U/mL penicillin and 200 μg/mL streptomycin was injected into trachea and reached major bronchi of both sides of the lungs. Lungs were then massaged and bronchoalveolar lavage fluid (BALF) was collected. PAMs were harvested from the BALF by centrifugation at 400×g for 15 min and washed in PBS twice. Fresh PAMs were counted and frozen in 90% FBS and 10% DMSO (Sigma-Aldrich, MO) in liquid nitrogen. PAMs were cultivated in RPMI-1640 (Gibco, MA) supplemented with 10% FBS, 2 mM Glutamax, 0.1 mM MEM Non-Essential Amino Acids, 1 mM sodium pyruvate, 100 U/mL penicillin and 100 μg/mL streptomycin, and 0.5 μg/mL Amphotericin B. SRCR5 domain of porcine CD163 receptor was amplified from cDNA of pig cells and inserted into pBiFC-VN155 (I152L). PRRSV GP2a and GP4 were amplified from reverse-transcribed genome of PRRSV VR2332 strain and cloned into pBiFC-VC155 vector as previously described (Huang et al., Virol J 17, 116, 2020). Porcine CD163 was cloned into pMXs vector (Cell Biolabs, CA, USA). For protein purification, […] were cloned into pET28b-GFP (Addgene, MA, USA).
# The recombinant pET28b-GFP-SRCR2/SRCR5 constructs were transformed into Escherichia coli strain BL21 (DE3) (New England Biolabs, MA, USA). The transformed clones were cultured at 37° C. in LB broth with […] kanamycin, induced by adding 1 mM isopropyl β-D-1-thiogalactopyranoside at optical density of 0.6-0.8, and then incubated at 37° C. for 3 h. For protein purification, cells were pelleted and resuspended in xTractor Buffer containing DNAse I, lysozyme solution, and Protease Inhibitor Cocktail (Takara Bio USA, Inc., CA). The suspension was sonicated and centrifuged. […]
# as §2
# T5 sequence (Q2VL90 477-577): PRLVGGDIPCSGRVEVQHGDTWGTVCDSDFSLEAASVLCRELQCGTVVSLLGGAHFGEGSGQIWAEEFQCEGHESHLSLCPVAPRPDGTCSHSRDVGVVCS
# T3 sequence (Q2VL90 477-577): as above
# T4 sequence (Q2VL90 477-577 limits assumed): as the sequence (Q2VL90 477-577) above
# T6 sequence (Q2VL90 477-577 limits assumed): as the sequence (Q2VL90 477-577) above
smiles,measurement,setting,value
Cc1cc(F)ccc1S(=O)(=O)Nc1nc2ccccc2nc1Nc1cccc(S(=O)(=O)N2CCOCC2)c1 [Compound B7],Kd,GFP [1],2110 µM
Cc1cc(F)ccc1S(=O)(=O)Nc1nc2ccccc2nc1Nc1cccc(S(=O)(=O)N2CCOCC2)c1 [B7],association with GFP-SRCR2 (in words),GFP-fusion CD163-SRCR2,little or no association; also recorded: did not interact
same,"Average GP4 (relative fluorescence intensity, SRCR5/GP4 BiFC)","[2]; listed as H5, 1440 min",0.06
same,"Average GP4 (relative fluorescence intensity, SRCR5/GP4 BiFC)","[2]; listed as PC, 1440 min",0.24
same,inhibition at 5 µM,"[2]; HEK-293T, read-out: reduction of the YFP fluorescence signal compared with NC (inhibition in GP4/SRCR5 BiFC)",> 70%
same,Kd,GFP-fusion CD163-SRCR5,32 µM
same,"Average GP2a (relative fluorescence intensity, SRCR5/GP2a BiFC)","[3]; listed as H5, 1440 min",0.15
same,"Average GP2a (relative fluorescence intensity, SRCR5/GP2a BiFC)","[3]; listed as PC, 1440 min",0.02
same,inhibition of the PPI between PRRSV GP2a and CD163 SRCR5 (in words),[3]; positive control,significantly inhibited
same,association with GFP (in words),GFP [4],little or no association
Cc1ccc(S(=O)(=O)Nc2nc3ccccc3nc2Nc2cccc(S(=O)(=O)N3CCCCC3)c2)cc1 [Compound B7-A4],Kd,[5],22.9 µM
